In BindingDB's records for doi:10.1016/j.bmcl.2008.03.079 (Columbia University, 2008):

Biological target: T1, Tyrosine-protein phosphatase non-receptor type 22 (Homo sapiens, UniProt Q9Y2R2)
T1 sequence (Q9Y2R2 whole entry): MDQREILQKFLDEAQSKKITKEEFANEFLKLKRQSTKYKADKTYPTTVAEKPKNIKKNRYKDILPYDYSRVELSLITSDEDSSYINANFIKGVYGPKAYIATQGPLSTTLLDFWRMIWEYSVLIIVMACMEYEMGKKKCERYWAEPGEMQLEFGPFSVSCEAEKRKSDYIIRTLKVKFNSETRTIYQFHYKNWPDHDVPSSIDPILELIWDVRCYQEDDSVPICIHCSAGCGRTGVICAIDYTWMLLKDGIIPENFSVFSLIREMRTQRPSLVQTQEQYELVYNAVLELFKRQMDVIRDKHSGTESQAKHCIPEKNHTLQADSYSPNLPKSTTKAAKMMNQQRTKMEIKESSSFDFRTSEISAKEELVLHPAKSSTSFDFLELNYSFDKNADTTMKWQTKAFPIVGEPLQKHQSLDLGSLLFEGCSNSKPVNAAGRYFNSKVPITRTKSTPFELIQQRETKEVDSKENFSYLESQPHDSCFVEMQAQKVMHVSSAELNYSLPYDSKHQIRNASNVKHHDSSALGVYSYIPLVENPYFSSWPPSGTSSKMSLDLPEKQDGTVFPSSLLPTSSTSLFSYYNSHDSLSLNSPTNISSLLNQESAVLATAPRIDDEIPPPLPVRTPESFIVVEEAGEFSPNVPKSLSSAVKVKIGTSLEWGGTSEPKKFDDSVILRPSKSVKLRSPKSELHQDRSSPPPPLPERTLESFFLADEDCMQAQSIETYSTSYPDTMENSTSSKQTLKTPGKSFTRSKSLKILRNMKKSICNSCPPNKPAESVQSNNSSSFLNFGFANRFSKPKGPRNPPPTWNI
Assay: Inhibition of lymphoid specific tyrosine phosphatase

Row | IC50 | Compound
1 | > 44 µM | O=C(O)c1cc(-c2ccc(C=Nn3cc(O)[nH]c3=O)o2)ccc1O
2 | > 44 µM | COC(=O)c1cc(-c2ccc(C=Nn3cc(O)[nH]c3=O)s2)ccc1O
3 | > 44 µM | O=C(O)Cn1c(O)cn(N=Cc2ccc(-c3ccc(O)c(C(=O)O)c3)s2)c1=O
4 | > 44 µM | COC(=O)c1cc(-c2ccc(C=Nn3cc(O)[nH]c3=O)o2)ccc1O
